Assay results reported in patent publication US9850287B2, “Means and methods for breaking noncovalent binding interactions between molecules” (Het Nederlands Kanker Instituut, priority 2005, dated 2017).

Target: T1, HLA-A2.1 multimers (Homo sapiens, UniProt P04439, D140Y/D185E/D98H/E176V/E277Q/G131W/G231S/I119V/I121R/I166T/I218V/N151K/N90K/P208A/P217A/Q86G/Q94H/R138H/R169H)
T1 construct: made in house
Type: physicochemical

Substance | effect of UV exposure on amount of MHC complex recovered
GIL*FVFTL (SEQ ID NO:3) [G4*] | substantial reduction in the amount of MHC complex recovered
GILGFVF*L (SEQ ID NO:4) [T8*] | substantial reduction in the amount of MHC complex recovered
